Experimental data taken from patent US3989835A, “Method of using 6-substituted amino phenyl-2,3,5,6-tetra-hydro[2,1-b]thiazoles for controlling gastrointestinal nematodes” (American Cyanamid Company, priority 1974, dated 1976).
Counter-ions that a name gives are not always drawn. Like-named read-outs stand apart in the source and are kept apart here.

Columns and labels:
in vivo = settings: for Approx. LD50 /ED50: chemotherapeutic index, mouse oral, N. dubius
Source text: Data on the acute oral toxicity to mice of various single oral doses of the above compounds and several analogs were obtained by conventional procedures, (Table IX hereinafter).

Nematospiroides dubius = experiment: Anthelmintic efficacy against N. dubius in mice, single oral dose; type: in vivo, Nematospiroides dubius (in albino female mice); settings: for inhibition in vivo at 20 mg/kg: single oral dose 20 mg./Kg.; for inhibition in vivo at 0.625 mg/kg: single oral dose 0.625 mg./Kg., adjusted to molar equivalents of tetramisole free base; for inhibition in vivo at 40 mg/kg: single oral dose 40 mg./Kg.; for inhibition in vivo at 4 mg/kg: single oral dose 4.0 mg./Kg.; for inhibition in vivo at 7.5 mg/kg: single oral dose 7.5 mg./Kg.
Experimental: Albino female mice are each inoculated with about 20 infectious larvae of Nematospiroides dubius. This nematode is a representative of the economical important trichostrongylis worms of ruminants and other hosts, and of nematodes in general. Twenty-two days after inoculation, groups of four randomly selected mice containing adult N. dubius are given single oral doses of test compounds dissolved or suspended in 0.4 ml. of water per 20 gram mouse. At 26 or 27 days after inoculation, treated mice and in each test four randomly selected groups of untreated mice are necropsied. The number of worms in the small intestine of each mouse are determined by microscopic examination. Average worm numbers for each treated group and for the untreated controls are computed and the percent efficacy determined by the customary formula:
(Average Worms in Control - Average Worms in Treated)/(Average Worms in Control) X 100.

[1] = mouse, in vivo, po, Approx. LD50, mouse oral, Table IX
[2] = mouse, in vivo, po, LD50, mice, adjusted to molar equivalents of tetramisole free base
[3] = single oral dose 50 Mg./Kg., mice
[4] = single oral dose 100 Mg./Kg., mice
[5] = single oral dose 200 Mg./Kg., mice
[6] = Heligmosomoides polygyrus, po, as Base, single oral dose, mice, > indicates inactive at dose shown, read-out: Approx. ED50
[7] = Heligmosomoides polygyrus, po, mouse oral, Table IX, read-out: Approx. ED50 vs. N. dubius
[8] = Heligmosomoides polygyrus, po, single oral dose 5.0 mg./Kg., molar-adjusted, read-out: Percent Nematospiroides Activity
[9] = Heligmosomoides polygyrus, po, single oral dose 10 mg./Kg., molar-adjusted, read-out: Percent Nematospiroides Activity
[10] = Heligmosomoides polygyrus, po, molar-adjusted, read-out: Percent Nematospiroides Activity
[11] = Heligmosomoides polygyrus, po, read-out: Percent Nematospiroides Activity
[12] = Heligmosomoides polygyrus, po, single oral dose 1.25 mg./Kg., molar-adjusted, read-out: Percent Nematospiroides Activity
[13] = Heligmosomoides polygyrus, po, single oral dose 2.0 mg./Kg., molar-adjusted, read-out: Percent Nematospiroides Activity
[14] = single oral dose 80 Mg./Kg., mice
[15] = single oral dose 120 Mg./Kg., mice
[16] = single oral dose 40 Mg./Kg., mice
[17] = single oral dose 60 Mg./Kg., mice
[18] = single oral dose 5.0 mg./Kg., molar-adjusted
[19] = single oral dose 10 mg./Kg., molar-adjusted
[20] = Heligmosomoides polygyrus, po, continuation of Table X (R1/R4 disubstituted), read-out: ED50

Structure (SMILES) | Approx. LD50 /ED50 (in vivo; Table IX) | LD50 (in vivo; [1]) | LD50 (in vivo; [2]) | ED50 (Nematospiroides dubius; [6]) | ED50 (Nematospiroides dubius; [7]) | inhibition in vivo at 5 mg/kg (Nematospiroides dubius; [8]) | inhibition in vivo at 10 mg/kg (Nematospiroides dubius; [9]) | inhibition in vivo at 1.25 mg/kg (Nematospiroides dubius; [12]) | inhibition in vivo at 2 mg/kg (Nematospiroides dubius; [13]) | also measured
CC(C)(C)C(=O)Nc1cccc(C2CN3CCSC3=N2)c1 (racemic) [m-NH--CO--C(CH3)3 dl] | 33 | 100 mg/kg | ~100 mg/kg | 3 mg/kg | 3 mg/kg | 75% | 88% | – | – | Dead/Total (in vivo; [3]): 0/6; Dead/Total (in vivo; [4]): 2/6; Dead/Total (in vivo; [5]): 5/6; inhibition in vivo at 20 mg/kg (Nematospiroides dubius; [10]): 100%
O=C(Nc1cccc(C2CN3CCSC3=N2)c1)c1ccc(Cl)cc1 (stereo not shown) [Table XII b1847] | – | – | ~80 mg/kg | – | – | 100% | – | 63% | 90% | inhibition in vivo at 0.625 mg/kg (Nematospiroides dubius; [11]): 40%
CCC(CC)C(=O)Nc1cccc(C2CN3CCSC3=N2)c1 (racemic) [m-NH-CO-CH(C2 H5)2 dl] | 21 | 160 mg/kg | ~160 mg/kg | 7.5 mg/kg | 7.5 mg/kg | – | 85% | – | – | Dead/Total (in vivo; [14]): 0/6; Dead/Total (in vivo; [15]): 0/6; Dead/Total (in vivo; single oral dose 180 Mg./Kg., mice): 3/6; inhibition in vivo at 20 mg/kg (Nematospiroides dubius; [10]): 99%; inhibition in vivo at 40 mg/kg (Nematospiroides dubius; [10]): 100%
COC(=O)Nc1cccc(C2CN3CCSC3=N2)c1 (stereo not drawn) [m-NH-CO--OCH3 l, l-m-(2,3,5,6-tetrahydroimidazo[2,1-b]thiazol-6-yl)carbanilicacid methyl ester, hydrochloride] | 20 | ~150 mg/kg | ~125 mg/kg | 7.5 mg/kg | 7.5 mg/kg | 28% | 61% | – | – | Dead/Total (in vivo; [3]): 0/5; Dead/Total (in vivo; [4]): 0/5; Dead/Total (in vivo; single oral dose 150 Mg./Kg., mice): 1/5; Dead/Total (in vivo; [5]): 5/5; inhibition in vivo at 20 mg/kg (Nematospiroides dubius; [10]): 100%; inhibition in vivo at 40 mg/kg (Nematospiroides dubius; [10]): 100%
O=C(Nc1cccc(C2CN3CCSC3=N2)c1)c1ccc([N+](=O)[O-])cc1 (stereo not shown) [Table XII b1857] | – | – | 60 to 90 mg/kg | – | – | 100% | 100% | 65% | 78% | –
CCCC(=O)Nc1cccc(C2CN3CCSC3=N2)c1 (racemic) [m-NH--CO--C3 H7n dl] | 20 | 40 mg/kg | 30 to 40 mg/kg | 2 mg/kg | 2 mg/kg | 99% | 100% | 43% | 58% | Dead/Total (in vivo; [16]): 3/5; Dead/Total (in vivo; [17]): 4/5; Dead/Total (in vivo; [14]): 4/5; Dead/Total (in vivo; [4]): 5/5
CC(=O)Nc1cccc(C2CN3CCSC3=N2)c1 (stereo not shown) [HN--CO--CH3] | – | – | 40 to 60 mg/kg | – | – | – | 100% | – | – | inhibition in vivo at 4 mg/kg (Nematospiroides dubius; [10]): 66%
CC(C)C(=O)Nc1cccc(C2CN3CCSC3=N2)c1 (stereo not shown) [m-NH--CO--CH(CH3)2 l] | 50 | 50 mg/kg | 60 to 75 mg/kg | 1 mg/kg | 1 mg/kg | – | – | 77% | 96% | Dead/Total (in vivo; [3]): 2/8; Dead/Total (in vivo; [4]): 8/8; inhibition in vivo at 0.625 mg/kg (Nematospiroides dubius; [11]): 30%; inhibition in vivo at 7.5 mg/kg (Nematospiroides dubius; [10]): 97%; Percent Nematospiroides Activity (Nematospiroides dubius; [18]): 100%; Percent Nematospiroides Activity (Nematospiroides dubius; [19]): 100%
CC(C)Nc1cccc(C2CN3CCSC3=N2)c1 (stereo not drawn) [m-NH-CH(CH3)2 dl, 6-(m-isopropylaminophenyl)-2,3,5,6-tetrahydroimidazo[2,1-b]thiazole] | 8 | ~40 mg/kg | ~50 mg/kg | 5 mg/kg | 5 mg/kg | 55% | 100% | – | – | Dead/Total (in vivo; [16]): 2/6; Dead/Total (in vivo; [17]): 3/6; Dead/Total (in vivo; [14]): 4/6; Dead/Total (in vivo; [4]): 5/6; inhibition in vivo at 7.5 mg/kg (Nematospiroides dubius; [10]): 89%; inhibition in vivo at 20 mg/kg (Nematospiroides dubius; [10]): 100%; inhibition in vivo at 40 mg/kg (Nematospiroides dubius; [10]): 100%
O=C(Nc1cccc(C2CN3CCSC3=N2)c1)c1cccc(Cl)c1 (stereo not shown) [Table XII b1851] | – | – | 80 to 100 mg/kg | – | – | 97% | – | 52% | 95% | inhibition in vivo at 0.625 mg/kg (Nematospiroides dubius; [11]): 40%
O=C(Nc1cccc(C2CN3CCSC3=N2)c1)c1ccccc1 (stereo not shown) [Table XII b1839] | – | – | 50 to 60 mg/kg | – | – | – | – | 94% | 100% | –
Nc1ccc([N+](=O)[O-])c(C2CN3CCSC3=N2)c1 (stereo not shown) [R1 =H R4 =NO2] | 60 | 120 mg/kg | 120 to 140 mg/kg | – | 2 mg/kg | – | 100% | – | 43% | Dead/Total (in vivo; [17]): 0/6; Dead/Total (in vivo; [15]): 2/6; Dead/Total (in vivo; single oral dose 240 Mg./Kg., mice): 6/6; ED50 (Nematospiroides dubius; [20]): 2 mg/kg; inhibition in vivo at 4 mg/kg (Nematospiroides dubius; [10]): 89%
O=C(Nc1cccc(C2CN3C=CSC3=N2)c1)c1ccccc1 (stereo not shown) [Table XIV b1987] | – | – | ~120 mg/kg | – | – | 94% | 100% | – | – | Percent Nematospirides Activity (Nematospiroides dubius; single oral dose 2.5 mg./Kg., molar-adjusted): 73%
CCCCCCC(=O)Nc1cccc(C2CN3CCSC3=N2)c1 (stereo not shown) [HNCO(CH2)5 CH3] | – | – | – | – | – | – | – | – | – | LD50 (in vivo; mice, adjusted to molar equivalents of tetramisole free base): 20 to 25 mg/kg; Percent Nematospiroides Activity (Nematospiroides dubius; single oral dose 1.25 mg./Kg., molar-adjusted): 53%; Percent Nematospiroides Activity (Nematospiroides dubius; single oral dose 2.0 mg./Kg., molar-adjusted): 99%; Percent Nematospiroides Activity (Nematospiroides dubius; [18]): 100%; Percent Nematospiroides Activity (Nematospiroides dubius; [19]): 100%
O=C(Nc1cccc(C2CN3CCSC3=N2)c1)c1ccc(Cl)c(Cl)c1 (stereo not shown) [Table XII b1854] | – | – | 80 to 100 mg/kg | – | – | 95% | – | 52% | 92% | inhibition in vivo at 0.625 mg/kg (Nematospiroides dubius; [11]): 58%
CC(=O)Nc1cccc(C2CN3CCSC3=N2)c1 (stereo not drawn) [m-NH--CO--CH3 dl, 3'-(2,3,5,6-Tetrahydroimidazo[2,1-b]thiazol-6-yl)acetanilide] | – | > 10 mg/kg | – | 4 mg/kg | 3 to 4 mg/kg | – | – | – | – | –
CC(C)N(C)c1cccc(C2CN3CCSC3=N2)c1 (racemic) [CH3 N--CH(CH3)2, 6-[m-(isopropylmethylamino)phenyl]-2,3,5,6-tetrahydroimidazo[2,1-b]thiazol] | – | – | 40 to 60 mg/kg | – | – | – | – | – | – | inhibition in vivo at 40 mg/kg (Nematospiroides dubius; [10]): 78%; inhibition in vivo at 60 mg/kg (Nematospiroides dubius; Heligmosomoides polygyrus, po, single oral dose 60 mg./Kg., molar-adjusted, read-out: Percent Nematospiroides Activity): 88%
CC(=O)Nc1ccc(Br)c(C2CN3CCSC3=N2)c1 (racemic) [R1 =COCH3 R4 =Br] | – | > 100 mg/kg | – | – | 30 mg/kg | – | – | – | – | ED50 (Nematospiroides dubius; [20]): 30 mg/kg
COc1ccc(C(=O)Nc2cccc(C3CN4CCSC4=N3)c2)cc1 (stereo not shown) [Table XII b1843] | – | – | 60 to 80 mg/kg | – | – | 100% | – | 58% | 95% | inhibition in vivo at 0.625 mg/kg (Nematospiroides dubius; [11]): 56%
O=C(Nc1cccc(C2CN3CCSC3=N2)c1)c1ccccc1 (racemic) [m-NH-CO dl] | 60 | 60 mg/kg | ~60 mg/kg | 1 mg/kg | 1 mg/kg | 100% | 100% | 67% | 94% | Dead/Total (in vivo; [16]): 0/6; Dead/Total (in vivo; [17]): 3/6; Dead/Total (in vivo; [14]): 4/6; Dead/Total (in vivo; [15]): 5/6; inhibition in vivo at 20 mg/kg (Nematospiroides dubius; [10]): 100%
CC(C)(C)CC(=O)Nc1cccc(C2CN3CCSC3=N2)c1 (stereo not shown) [HNCOCH2 C(CH3)2] | – | – | 80 to 100 mg/kg | – | – | 59% | 98% | – | – | –
O=C(CCl)Nc1cccc(C2CN3CCSC3=N2)c1 (stereo not shown) [H--N--CO--CH2 Cl] | – | – | 50 to 60 mg/kg | – | – | 100% | – | 84% | – | inhibition in vivo at 40 mg/kg (Nematospiroides dubius; [10]): 100%; inhibition in vivo at 50 mg/kg (Nematospiroides dubius; Heligmosomoides polygyrus, po, single oral dose 50 mg./Kg., molar-adjusted, read-out: Percent Nematospiroides Activity): 100%
O=CNc1cccc(C2CN3C=CSC3=N2)c1 (stereo not shown) [5,6-dihydro HNCHO] | – | – | ~150 mg/kg | – | – | – | 100% | – | – | inhibition in vivo at 4 mg/kg (Nematospiroides dubius; [10]): 64%
CCC(=O)Nc1cccc(C2CN3CCSC3=N2)c1 (racemic) [m-NH--CO--C2 H5 dl] | 20 | < 40 mg/kg | 30 to 40 mg/kg | 2 mg/kg | 2 mg/kg | 100% | 100% | – | 76% | Dead/Total (in vivo; [16]): 4/5; Dead/Total (in vivo; [17]): 4/6; Dead/Total (in vivo; [14]): 5/5; Dead/Total (in vivo; [4]): 6/6
